The test system of assay [1] is PANC-1. Put plainly: Preferential cytotoxic activity against human PANC-1 cells in Dulbecco's modified Eagle's medium. The assay is classed as functional, cell-based.
The nature of assay [2]: Selectivity index, ratio of PC50 for Preferential cytotoxic activity against human PANC-1 cells in Dulbecco's modified Eagle's medium to PC50 for Preferential cytotoxic activity against human PANC-1 cells in nutrient-deprived medium. The assay is classed as functional.
The subject of assay [3] is PANC-1. Put plainly: Preferential cytotoxic activity against human PANC-1 cells in nutrient-deprived medium. Type of assay: functional.
Assay [4] addresses T1, Serine/threonine-protein kinase AKT (Homo sapiens) (UniProt P31751+Q9Y243+P31749). Description: Inhibition of Akt S473 phosphorylation in human PANC-1 cells in NDM medium at 2.5 to 10 uM incubated for 6 hrs by Western blot analysis. The assay is classed as cell-based. The note with it: dose 2.5-10 µM.
Assay [5] addresses T1, Serine/threonine-protein kinase AKT (Homo sapiens). Description: Inhibition of Akt S473 phosphorylation in human PANC-1 cells in DMEM medium at 10 uM incubated for 6 hrs by Western blot analysis. The assay is classed as cell-based.
The subject of assay [6] is PANC-1. Put plainly: Effect on mTOR protein expression in human PANC-1 cells in DMEM medium at 1 to 10 uM incubated for 6 hrs by Western blot analysis. The assay is classed as functional, cell-based. The note with it: dose 1-10 µM. On the technique in general: A western blot detects proteins with antibodies after separation by electrophoresis.
The subject of assay [7] is PANC-1. Put plainly: Induction of cell death in human PANC-1 cells in nutrient-deprived medium at 10 uM after 24 hrs by ethidium bromide-acridine orange double-staining assay. Type of assay: functional, cell-based.
The subject of assay [8] is PANC-1. Put plainly: Inhibition of colony formation in human PANC-1 cells in DMEM medium at 5 uM incubated for 10 days relative to control. Type of assay: functional. The note with it: PANC-1, 240 h, time 10 day.
The subject of assay [9] is PANC-1. Description: Inhibition of cell migration in human PANC-1 cells in DMEM medium assessed as wound area level at 5 uM after 48 hrs by wound-healing assay relative to initial area (reference value: 23%). The assay is classed as functional. On the set-up: scale not given: the % may be the effect or the level left.
In assay [10] the test system is PANC-1. Put plainly: Induction of morphological changes in human PANC-1 cells in nutrient-deprived medium assessed as induction of leakage of intracellular components into the media at 10 uM within 24 hrs by Cyto-smart Lux2 live cell imaging based method. Type of assay: functional.
For assay [11], the system named is PANC-1. Put plainly: Inhibition of cell migration in human PANC-1 cells in DMEM medium assessed as wound area level at 5 uM after 24 hrs by wound-healing assay relative to initial area (reference value: 55%). The assay is classed as functional. On the set-up: scale not given: the % may be the effect or the level left.
Assay [12] deals with PANC-1. Description: Inhibition of colony formation in human PANC-1 cells in DMEM medium at 3 uM incubated for 10 days relative to control. As to conditions: PANC-1, 240 h, time 10 day. Type of assay: functional.
The subject of assay [13] is PANC-1. Description: Inhibition of cell migration in human PANC-1 cells in DMEM medium assessed as wound area level at 3 uM after 48 hrs by wound-healing assay relative to initial area (reference value: 23%). On the set-up: scale not given: the % may be the effect or the level left. Type of assay: functional.
In assay [14] the test system is PANC-1. Put plainly: Effect on mTOR protein expression in human PANC-1 cells in NDM medium at 1 to 10 uM incubated for 6 hrs by Western blot analysis. As to conditions: dose 1-10 µM. The assay is classed as functional, cell-based.
The test system of assay [15] is PANC-1. Description: Effect on […] protein expression in human PANC-1 cells in NDM medium at 1 to 10 uM incubated for 6 hrs by Western blot analysis. The assay is classed as functional, cell-based. As to conditions: dose 1-10 µM.
For assay [16], the target named is T1, Serine/threonine-protein kinase AKT (Homo sapiens). Put plainly: Inhibition of Akt signaling in human PANC-1 cells assessed as reduction in mTOR […] phosphorylation in NDM medium at 10 uM incubated for 6 hrs by Western blot analysis. The assay is classed as cell-based.
For assay [17], the system named is PANC-1. Description: Inhibition of colony formation in human PANC-1 cells in DMEM medium at 1 uM incubated for 10 days relative to control. Type of assay: functional. The note with it: PANC-1, 240 h, time 10 day.
The subject of assay [18] is PANC-1. Description: Induction of morphological changes in human PANC-1 cells in nutrient-deprived medium assessed as induction of cell rounding and shrinkage at 10 uM within 24 hrs by Cyto-smart Lux2 live cell imaging based method. The assay is classed as functional.
The subject of assay [19] is PANC-1. Description: Inhibition of cell migration in human PANC-1 cells in DMEM medium assessed as wound area level at 3 uM after 24 hrs by wound-healing assay relative to initial area (reference value: 55%). The assay is classed as functional. Also on record: scale not given: the % may be the effect or the level left.
The subject of assay [20] is PANC-1. Description: Effect on Akt protein expression in human PANC-1 cells in DMEM medium at 1 to 10 uM incubated for 6 hrs by Western blot analysis. The assay is classed as functional, cell-based. The note with it: dose 1-10 µM.

SMILES strings stand for the structures. Activity calls are given as the source filed them. The rule behind the calls is not given here.

T1 sequence (P31749 whole entry, looked up): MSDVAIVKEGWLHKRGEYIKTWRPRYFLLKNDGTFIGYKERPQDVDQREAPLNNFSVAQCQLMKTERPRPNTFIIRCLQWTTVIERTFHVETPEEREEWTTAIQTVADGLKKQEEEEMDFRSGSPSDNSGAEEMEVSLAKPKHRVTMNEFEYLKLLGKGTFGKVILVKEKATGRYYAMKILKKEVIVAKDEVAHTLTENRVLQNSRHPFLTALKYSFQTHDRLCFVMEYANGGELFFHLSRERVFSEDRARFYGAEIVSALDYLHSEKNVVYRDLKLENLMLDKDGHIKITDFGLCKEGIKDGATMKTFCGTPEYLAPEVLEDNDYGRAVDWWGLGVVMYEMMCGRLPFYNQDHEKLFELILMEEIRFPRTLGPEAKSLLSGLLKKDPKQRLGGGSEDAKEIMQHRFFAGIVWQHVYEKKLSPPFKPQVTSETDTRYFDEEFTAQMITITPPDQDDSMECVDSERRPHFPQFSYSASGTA
T1 sequence (P31751 whole entry, looked up): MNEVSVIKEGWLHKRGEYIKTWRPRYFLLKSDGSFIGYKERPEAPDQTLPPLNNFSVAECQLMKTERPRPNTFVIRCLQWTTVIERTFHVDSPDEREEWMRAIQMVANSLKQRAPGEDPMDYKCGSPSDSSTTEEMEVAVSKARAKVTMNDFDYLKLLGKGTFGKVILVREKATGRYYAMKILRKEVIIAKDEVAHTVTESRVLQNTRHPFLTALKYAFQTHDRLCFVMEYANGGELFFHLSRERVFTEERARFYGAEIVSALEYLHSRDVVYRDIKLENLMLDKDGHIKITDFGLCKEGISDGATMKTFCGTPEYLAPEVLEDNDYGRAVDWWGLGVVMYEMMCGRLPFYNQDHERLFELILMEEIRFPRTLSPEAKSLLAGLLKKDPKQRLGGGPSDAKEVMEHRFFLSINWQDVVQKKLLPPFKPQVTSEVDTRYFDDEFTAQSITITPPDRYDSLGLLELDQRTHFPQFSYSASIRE
T1 sequence (Q9Y243 whole entry, looked up): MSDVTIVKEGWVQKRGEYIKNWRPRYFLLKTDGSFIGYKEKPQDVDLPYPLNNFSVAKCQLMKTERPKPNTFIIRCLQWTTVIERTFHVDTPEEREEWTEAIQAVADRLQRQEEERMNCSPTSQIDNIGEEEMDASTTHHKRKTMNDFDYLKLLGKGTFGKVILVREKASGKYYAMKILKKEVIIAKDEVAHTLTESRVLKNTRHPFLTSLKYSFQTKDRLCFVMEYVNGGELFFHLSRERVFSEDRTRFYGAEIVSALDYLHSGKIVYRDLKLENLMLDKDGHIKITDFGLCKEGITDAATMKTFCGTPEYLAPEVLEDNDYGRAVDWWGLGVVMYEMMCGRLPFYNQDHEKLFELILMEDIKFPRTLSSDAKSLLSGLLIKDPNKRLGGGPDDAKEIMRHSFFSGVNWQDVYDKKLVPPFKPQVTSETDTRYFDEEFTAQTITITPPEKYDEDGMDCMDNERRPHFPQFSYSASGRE

With `C=C1C(F)(F)C[C@H]2[C@@H]3CCC4=CC(=O)CC[C@]4(C)[C@H]3CC[C@]12C`, the 50% inhibitory concentration (IC50) in [1] is over 100 µM. Moreover, the “Selectivity Index” value in [2] was over 7.1. Besides, the PC50 in assay [3] stood at 14 µM.

`C=C1C(=O)C[C@H]2[C@@H]3CC[C@H]4CC(=O)CC[C@]4(C)[C@H]3CC[C@]12C`: the inhibition entry in assay [4], in [5] and in assay [16] was “Active” in each case. The Activity entry in assay [6] was “Non-Toxic”; in [9], 70%; in assay [11], 85%; in assay [13], 45%; in [14], “Non-Toxic”; in [15] it was “Non-Toxic”. For the same molecule, the Activity in assay [19] is 70%; in assay [20] it was “Non-Toxic”. Moreover, the outcome in assay [7], in assay [10] and in assay [18] was Active. The same molecule had a half-maximal inhibitory concentration (IC50) in assay [1] of 3.5 µM. In assay [8], this molecule gave an inhibition at 5 µM of 100%. The “Selectivity Index” value in assay [2] turned out to be 4.9. This molecule yielded a PC50 in assay [3] of 0.72 µM. Moreover, the inhibition at 3 µM in assay [12] worked out at 97.7%. The same molecule had an inhibition at 1 µM in assay [17] of over 50.9%.

In assay [1], `C=C1CC[C@H]2[C@@H]3CCC4=CC(=O)CC[C@]4(C)[C@H]3CC[C@]12C` displayed a concentration for half-maximal inhibition (IC50) of 50 µM. Also, the “Selectivity Index” value in assay [2] is on record as 14. Further, the PC50 in assay [3] amounted to 3.5 µM.

Consider `CCO[C@H]1CCCC2=CC(=O)CC[C@@]21C`, for which the IC50 in assay [1] was over 100 µM. The same molecule showed a PC50 in [3] of over 100 µM.

Consider `C[C@]12CC[C@H]3[C@@H](CCC4=CC(=O)CC[C@@]43C)[C@@H]1CC(=O)[C@@H]2CSCCO`, for which, in assay [1], the midpoint of inhibition, the IC50, lay at 100 µM. The PC50 in assay [3] was found to be 53 µM.

In assay [1], `C[C@]12CCC(=O)C=C1CC[C@@H]1[C@@H]2CC[C@]2(C)C(=C(F)F)CC[C@@H]12` showed an IC50 of 91 µM. The “Selectivity Index” value in assay [2] was determined as 18. For the same molecule, in assay [3], the PC50 worked out at 5.2 µM.

In the case of `COCO[C@@H]1C[C@H]2[C@@H]3CCC4=CC(=O)CC[C@]4(C)[C@H]3CC[C@]2(C)C1=C(F)F`, the half-maximal inhibitory concentration (IC50) in assay [1] was 29 µM. Besides, the “Selectivity Index” value in [2] was 3.2. Besides, the PC50 in assay [3] was found to be 9.2 µM.

As for `C=C1C(=O)C[C@H]2[C@@H]3CCC4=CC(=O)CC[C@]4(C)[C@H]3CC[C@]12C`, in [2], the “Selectivity Index” value was 6.9. Moreover, in assay [3], the PC50 was 1.6 µM.

With `C=C1[C@H](O)C[C@H]2[C@@H]3CCC4=CC(=O)CC[C@]4(C)[C@H]3CC[C@]12C`, in assay [1], the IC50 is over 100 µM. Also, the PC50 in assay [3] stood at 57 µM.

On to `C/C=C1/CC[C@H]2[C@@H]3CCC4=CC(=O)CC[C@]4(C)[C@H]3CC[C@]12C`, for which the IC50 in assay [1] was over 100 µM. Also, the “Selectivity Index” value in assay [2] was over 31. This molecule returned a PC50 in assay [3] of 3.2 µM.

Molecule `C=C1[C@H](OCOC)C[C@H]2[C@@H]3CCC4=CC(=O)CC[C@]4(C)[C@H]3CC[C@]12C` displayed a half-maximal inhibitory concentration (IC50) in [1] of 100 µM. Also, the “Selectivity Index” value in [2] is given as 3.2. In assay [3], this molecule registered a PC50 of 31 µM.

In assay [1], `C=C1C(=O)C[C@H]2[C@@H]3CC[C@H]4CCCC[C@]4(C)[C@H]3CC[C@]12C` had a half-inhibitory concentration (IC50) of 3 µM. Further, the “Selectivity Index” value in [2] came to 3.8. The molecule also came in with a PC50 in assay [3] of 0.8 µM.

For the molecule `C[C@]12CCC(=O)C=C1CC[C@@H]1[C@@H]2CC[C@]2(C)C(=C(F)F)[C@H](O)C[C@@H]12`, the IC50 in assay [1] was 51 µM. Also, in [2], the “Selectivity Index” value worked out at 2.8. The PC50 in assay [3] amounted to 18 µM.

In turn, `CC(=O)O[C@H]1CCCC2=CC(=O)CC[C@@]21C` showed a concentration for half-maximal inhibition (IC50) in assay [1] of over 100 µM. In [3], the PC50 is over 100 µM.

In the case of `C/C=C1/C(=O)C[C@H]2[C@@H]3CCC4=CC(=O)CC[C@]4(C)[C@H]3CC[C@]12C`, in assay [3], the PC50 entry is “Active”.

In general, IC50 refers to the concentration that inhibits the measured activity by half. Broadly, the inhibition is the relative decrease from the control value, in per cent.

For the origin of these results see ChEMBL document CHEMBL5143553, “Structure-activity relationship and mechanistic study on guggulsterone derivatives; Discovery of new anti-pancreatic cancer candidate” (Bioorg Med Chem, 2022).
